{"source": "ChEMBL document CHEMBL5614419", "about": "“Discovery of novel BCL6-Targeting PROTACs with effective antitumor activities against DLBCL in vitro and in vivo” (Eur J Med Chem, 2024)", "key": {"[1]": {"test": "Half life in male Sprague-Dawley rat at 20 mg/kg, po measured upto 24 hrs by LC-MS/MS analysis", "format": "ADME, organism-based", "conditions": "in vivo"}, "[2]": {"target": "T1, Protein cereblon/B-cell lymphoma 6 protein (Homo sapiens, UniProt Q96SW2+P41182)", "T1 sequence (Q96SW2 whole entry, looked up, other chains not shown)": "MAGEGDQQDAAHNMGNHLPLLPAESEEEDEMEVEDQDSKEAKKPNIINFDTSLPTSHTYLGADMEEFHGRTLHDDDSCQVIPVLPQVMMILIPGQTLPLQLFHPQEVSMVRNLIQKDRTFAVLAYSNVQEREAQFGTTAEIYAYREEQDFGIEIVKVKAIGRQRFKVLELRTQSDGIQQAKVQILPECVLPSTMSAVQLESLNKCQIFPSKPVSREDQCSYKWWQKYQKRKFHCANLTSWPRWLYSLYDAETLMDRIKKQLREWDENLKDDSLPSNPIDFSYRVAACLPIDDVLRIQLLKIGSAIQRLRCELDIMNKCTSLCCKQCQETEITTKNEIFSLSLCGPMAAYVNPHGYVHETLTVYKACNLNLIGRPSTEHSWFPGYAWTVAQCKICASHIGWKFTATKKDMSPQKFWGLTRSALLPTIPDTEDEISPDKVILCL", "test": "In vivo PROTAC activity at CRBN/BCL6 in female nude nu/nu mouse model xenografted with human SU-DHL-4 cells assessed as increase in p21 protein level in tumor at 40 mg/kg, ip measured after 5 hrs of last dose by Western blot analysis", "format": "functional, organism-based", "conditions": "SUD4"}, "[3]": {"test": "Cmax in male Sprague-Dawley rat at 10 mg/kg, ip measured upto 24 hrs by LC-MS/MS analysis", "format": "ADME, organism-based", "conditions": "in vivo"}, "DOHH-2": {"test_system": "DOHH-2", "test": "Induction of cell cycle arrest in human DOHH-2 cells assessed as G1 phase arrest at 500 nM in presence of Ibrutinib incubated for 72 hrs by flow cytometry", "format": "functional, cell-based"}, "[4]": {"target": "T1, Protein cereblon/B-cell lymphoma 6 protein", "test": "In vivo PROTAC activity at CRBN/BCL6 in female nude nu/nu mouse model xenografted with human SU-DHL-4 cells assessed as downregulation of BCL6 protein level in tumor at 40 mg/kg, ip measured after 5 hrs of last dose by Western blot analysis", "format": "functional, organism-based", "conditions": "SUD4"}, "[5]": {"target": "T1, Protein cereblon/B-cell lymphoma 6 protein", "test": "PROTAC activity at CRBN/BCL6 in human Ibrutinib resistant DOHH2 cells assessed as induction of BCL6 degradation at 0.1 to 10 uM incubated for 48 hrs by Western blot analysis", "format": "cell-based", "conditions": "dose 0.1-10 µM"}, "SUD4 [6]": {"test_system": "SUD4", "test": "Upregulation of p27 protein level in human SU-DHL-4 cells incubated for 48 hrs by Western blot analysis", "format": "functional, cell-based", "conditions": "dose 0.1-10 µM"}, "[7]": {"target": "T1, Protein cereblon/B-cell lymphoma 6 protein", "test": "PROTAC activity at CRBN/BCL6 in human DOHH-2 cells assessed as induction of BCL6 degradation by measuring maximal efficacy incubated for 48 hrs by Western blot analysis relative to control", "format": "cell-based"}, "[8]": {"target": "T1, Protein cereblon/B-cell lymphoma 6 protein", "test": "PROTAC activity at CRBN/BCL6 in human SU-DHL-4 cells assessed as induction of BCL6 degradation incubated for 48 hrs by Western blot analysis", "format": "cell-based"}, "[9]": {"target": "T1, Protein cereblon/B-cell lymphoma 6 protein", "test": "PROTAC activity at CRBN/BCL6 in BCL6-dependent human SU-DHL-4 cells assessed as induction of BCL6 degradation by measuring degradation rate at 10 uM incubated for 48 hrs by Western blot analysis relative to control", "format": "cell-based"}, "[10]": {"test": "Antitumor activity against human SU-DHL-4 cells xenografted in female nude nu/nu mouse assessed as tumor growth inhibition at 40 mg/kg, ip measured after 21 days by microcaliper based analysis relative to control", "format": "functional, SUD4", "conditions": "SU-DHL-4, 504 h, time 21 day, read-out: TGI"}, "[11]": {"test": "AUC (0 to infinity) in male Sprague-Dawley rat at 10 mg/kg, ip measured upto 24 hrs by LC-MS/MS analysis", "format": "ADME, organism-based", "conditions": "in vivo"}, "[12]": {"test": "Antitumor activity against human SU-DHL-4 cells xenografted in female nude nu/nu mouse assessed as tumor growth inhibition at 10 mg/kg, ip measured after 21 days by microcaliper based analysis relative to control", "format": "functional, SUD4", "conditions": "SU-DHL-4, 504 h, time 21 day, read-out: TGI"}, "[13]": {"test": "Cmax in male Sprague-Dawley rat at 20 mg/kg, po measured upto 24 hrs by LC-MS/MS analysis", "format": "ADME, organism-based", "conditions": "in vivo"}, "SUD4 [14]": {"test_system": "SUD4", "test": "Effect on BCL6 mRNA level in human SU-DHL-4 cells at 10 uM incubated for 48 hrs by RT-qPCR analysis", "format": "functional, cell-based"}, "WI-38 VA13": {"test_system": "WI-38 VA13", "test": "(§1) Cytotoxicity against human WI-38 VA13 cells assessed as inhibition in cell growth measured after 6 days by MTT assay", "format": "toxicity, cell-based", "conditions": "wi-38 va13, 144 h, time 6 day"}, "[15]": {"test": "as §1", "format": "toxicity, cell-based", "conditions": "WI-38 VA13 cells"}, "SUD4 [16]": {"test_system": "SUD4", "test": "Upregulation of CDKN1A mRNA level in human SU-DHL-4 cells at 10 uM incubated for 48 hrs by RT-qPCR analysis", "format": "functional, cell-based"}, "[17]": {"target": "T1, Protein cereblon/B-cell lymphoma 6 protein", "test": "PROTAC activity at CRBN/BCL6 in human SU-DHL-4 cells assessed as induction of BCL6 degradation by measuring reduction in protein level at 5 uM measured upto 72 hrs by Western blot analysis", "format": "cell-based"}, "[18]": {"test": "AUC (0 to infinity) in male Sprague-Dawley rat at 20 mg/kg, po measured upto 24 hrs by LC-MS/MS analysis", "format": "ADME, organism-based", "conditions": "in vivo"}, "[19]": {"test": "Tmax in male Sprague-Dawley rat at 10 mg/kg, ip measured upto 24 hrs by LC-MS/MS analysis", "format": "ADME, organism-based", "conditions": "in vivo"}, "SUD4 [20]": {"test_system": "SUD4", "test": "Upregulation of p21 protein level in human SU-DHL-4 cells at 5 uM by Western blot analysis", "format": "functional, cell-based", "conditions": "time 12-72 hrs, TDE = time-dependent effect"}, "SUD4 [21]": {"test_system": "SUD4", "test": "Induction of cell cycle arrest in human SU-DHL-4 cells assessed as accumulation of cells at G1 phase incubated for 72 hrs by flow cytometry analysis", "format": "functional, cell-based", "conditions": "dose 0.1-10 µM"}, "[22]": {"test": "AUC (0 to t) in male Sprague-Dawley rat at 10 mg/kg, ip measured upto 24 hrs by LC-MS/MS analysis", "format": "ADME, organism-based", "conditions": "in vivo"}, "[23]": {"test": "MRT (0 to t) in male Sprague-Dawley rat at 20 mg/kg, po measured upto 24 hrs by LC-MS/MS analysis", "format": "ADME, organism-based", "conditions": "in vivo"}, "SUD4 [24]": {"test_system": "SUD4", "test": "Synergistic antiproliferative activity against human SU-DHL-4 cells assessed as combination index measured after 6 days in presence of Ibrutinib by MTT assay", "format": "functional", "conditions": "time 6 day"}, "[25]": {"test_system": "Ibrutinib resistant DOHH2 cell", "test": "Upregulation of p27 protein level in human Ibrutinib resistant DOHH2 cells at 0.1 to 10 uM incubated for 48 hrs by Western blot analysis", "format": "functional, cell-based", "conditions": "dose 0.1-10 µM"}, "SUD4 [26]": {"test_system": "SUD4", "test": "Upregulation of CDKN1B mRNA level in human SU-DHL-4 cells at 10 uM incubated for 48 hrs by RT-qPCR analysis", "format": "functional, cell-based"}, "[27]": {"test": "Half life in male Sprague-Dawley rat at 10 mg/kg, ip measured upto 24 hrs by LC-MS/MS analysis", "format": "ADME, organism-based", "conditions": "in vivo"}, "[28]": {"test_system": "Ibrutinib resistant DOHH2 cell", "test": "Upregulation of p21 protein level in human Ibrutinib resistant DOHH2 cells at 0.1 to 10 uM incubated for 48 hrs by Western blot analysis", "format": "functional, cell-based", "conditions": "dose 0.1-10 µM"}, "[29]": {"target": "T1, Protein cereblon/B-cell lymphoma 6 protein", "test": "PROTAC activity at CRBN/BCL6 in human SU-DHL-4 cells assessed as reduction in half life BCL6 at 1 uM preincubated with compound for 24 hrs followed by CHX addition and measured after 4 hrs by Western blot analysis", "format": "cell-based", "conditions": "time 28.0 hrs"}, "OCI-Ly1": {"test_system": "OCI-Ly1", "test": "Antiproliferative activity against BCL6-dependent human OCI-Ly1 cells assessed as inhibition in cell growth measured after 6 days by MTT assay", "conditions": "OCI-Ly1, 144 h"}, "SUD4 [30]": {"test_system": "SUD4", "test": "Antiproliferative activity against BCL6-dependent human SU-DHL-4 cells assessed as inhibition of cell growth at 1 uM measured after 6 days by MTT assay relative to control", "format": "functional", "conditions": "SU-DHL-4, 144 h, time 6 day"}, "SUD4 [31]": {"test_system": "SUD4", "test": "Upregulation of p21 protein level in human SU-DHL-4 cells incubated for 48 hrs by Western blot analysis", "format": "functional, cell-based", "conditions": "dose 0.1-10 µM"}, "HEK-293T": {"test_system": "HEK-293T", "test": "(§2) Cytotoxicity against HEK293T cells assessed as inhibition in cell growth measured after 6 days by MTT assay", "format": "toxicity, cell-based", "conditions": "human, hek-293t, 144 h; time 6 day"}, "[32]": {"test": "as §2", "format": "toxicity, cell-based, HEK-293T", "conditions": "human, HEK293T cells"}, "[33]": {"test": "Antitumor activity against human SU-DHL-4 cells xenografted in female nude nu/nu mouse assessed as tumor growth inhibition at 20 mg/kg, ip measured after 21 days by microcaliper based analysis relative to control", "format": "functional, SUD4", "conditions": "SU-DHL-4, 504 h, time 21 day, read-out: TGI"}}, "note": "Active and inactive are the calls of the source. No cut-off for these calls is given here.", "data": [{"smiles": "COc1cc(Nc2nc(N3CCN(CCOCCNc4cccc5c4C(=O)N(C4CCC(=O)NC4=O)C5=O)CC3)ncc2F)ccc1NC(=O)c1ccc(C2=CCCC2)s1", "note": "(stereo not drawn)", "values": [{"measurement": "half-life", "setting": "[1]", "value": 1.06, "unit": "h"}, {"measurement": "Activity", "setting": "[2]", "value": "Active"}, {"measurement": "Cmax", "setting": "[3]", "value": 3820, "unit": "ng/mL"}, {"measurement": "Activity", "setting": "DOHH-2", "value": "Active"}, {"measurement": "Activity", "setting": "[4]", "value": "Active"}, {"measurement": "Activity", "setting": "[5]", "value": "Active"}, {"measurement": "Activity", "setting": "SUD4 [6]", "value": "Dose-Dependent Effect"}, {"measurement": "Emax", "setting": "[7]", "value": 93.7, "unit": "%"}, {"measurement": "Activity", "setting": "[8]", "value": "Dose-Dependent Effect"}, {"measurement": "DC50", "setting": "[8]", "value": 0.676, "unit": "µM"}, {"measurement": "Activity", "setting": "[9]", "value": 94.4, "unit": "%"}, {"measurement": "inhibition in vivo at 40 mg/kg", "setting": "[10]", "value": 71.8, "unit": "%"}, {"measurement": "AUC(0-inf)", "setting": "[11]", "value": 33900, "unit": "ng·h/mL"}, {"measurement": "inhibition in vivo at 10 mg/kg", "setting": "[12]", "value": 22.2, "unit": "%"}, {"measurement": "Cmax", "setting": "[13]", "value": 703, "unit": "ng/mL"}, {"measurement": "Activity", "setting": "SUD4 [14]", "value": "inactive"}, {"measurement": "Activity", "setting": "WI-38 VA13", "value": "Dose-Dependent Effect"}, {"measurement": "IC50 at 6 days", "setting": "[15]", "value": "> 10", "unit": "µM"}, {"measurement": "Activity", "setting": "SUD4 [16]", "value": "Active"}, {"measurement": "Activity", "setting": "[17]", "value": "Active"}, {"measurement": "AUC(0-inf)", "setting": "[18]", "value": 2330, "unit": "ng·h/mL"}, {"measurement": "Tmax", "setting": "[19]", "value": 2.67, "unit": "h"}, {"measurement": "Activity", "setting": "SUD4 [20]", "value": "Tde"}, {"measurement": "Activity", "setting": "SUD4 [21]", "value": "Dose-Dependent Effect"}, {"measurement": "AUC(0-t) at 24 h", "setting": "[22]", "value": 33800, "unit": "ng·h/mL"}, {"measurement": "MRT last at 24 h", "setting": "[23]", "value": 2.48, "unit": "h"}, {"measurement": "CI", "setting": "SUD4 [24]", "value": 0.5}, {"measurement": "Activity", "setting": "[25]", "value": "Active"}, {"measurement": "Activity", "setting": "SUD4 [26]", "value": "Active"}, {"measurement": "half-life", "setting": "[27]", "value": 2.59, "unit": "h"}, {"measurement": "Activity", "setting": "[28]", "value": "Active"}, {"measurement": "Activity", "setting": "[29]", "value": "Active"}, {"measurement": "IC50", "setting": "OCI-Ly1", "value": 1.37, "unit": "µM"}, {"measurement": "inhibition at 1 µM", "setting": "SUD4 [30]", "value": 66.1, "unit": "%"}, {"measurement": "Activity", "setting": "SUD4 [31]", "value": "Dose-Dependent Effect"}, {"measurement": "Activity", "setting": "HEK-293T", "value": "Dose-Dependent Effect"}, {"measurement": "IC50 at 6 days", "setting": "[32]", "value": "> 10", "unit": "µM"}, {"measurement": "inhibition in vivo at 20 mg/kg", "setting": "[33]", "value": 47.4, "unit": "%"}]}]}
